Blank lines part the entries; values can stand above or below the molecule they belong to.
Key:
[1] = tested on: human plasma; test: Anticoagulant effect on human blood in vitro (APTT clotting time, CT2.0); conditions: final concentration of compound corresponding to aPTT of the 2-fold blank control
Protocol: Activated partial thromboplastin time (APTT) measurement reagent was mixed with plasma and the reaction was carried out continuously resulting in a change in optical density up to the clotting point, and the clotting time (CT) was measured by optical turbidimetry using a semi-automatic coagulation analyzer. The in vitro anticoagulant activity of compounds on human blood was determined by detecting the clotting time of plasma treated with different concentrations of compounds, and the corresponding concentration of compounds prolonging clotting time was calculated.
Human plasma used in the experiment was purchased from HD Biosciences (Shanghai) Co., Ltd.; Activated partial thromboplastin time determination kit was purchased from Taizhou Zhongqin Shidi Biotechnology Co., Ltd., Item No. SS00220005.
(§1) The compounds were dissolved in 100% DMSO, 20 mM, and stored at room temperature in a nitrogen cabinet.
a. The NaCl reagent in the kit was incubated half an hour in advance, and the APTT reagent was balanced to room temperature.
b. The compound was continuously diluted at 14 concentration points using a Bravo liquid workstation with a 2-fold gradient.
c. 0.75 μL of the compound was added to the measuring cup, double-replicate wells; 50 μL of plasma was added and 50 μL of APTT reagent was added, the mixture was mixed well and put into coagulation analyzer for incubation at 37° C. for 3 minutes.
d. APTT assay was started, 50 μL of NaCl was added to start the reaction, and the clotting time was counted.
e. Control clotting time was measured using 100% DMSO instead of the compound, and the final concentration of DMSO was 0.5%.
Data were curve-fitted using Graphpad Prism to calculate CT2.0, the final concentration of compound corresponding to aPTT of the 2-fold blank control was calculated.

[2] = biological target: T1, coagulation factor XIa protease (FXIa) (Homo sapiens, UniProt P03951); test: Inhibition of coagulation factor XIa (FXIa), chromogenic substrate, absorbance at 405; format: biochemical; conditions: FXIa 0.05 μg/mL, substrate 2.5 mM, 37° C. 15 minutes
T1 construct: purchased Abcam ab62411
T1 sequence (P03951 388-625 limits assumed): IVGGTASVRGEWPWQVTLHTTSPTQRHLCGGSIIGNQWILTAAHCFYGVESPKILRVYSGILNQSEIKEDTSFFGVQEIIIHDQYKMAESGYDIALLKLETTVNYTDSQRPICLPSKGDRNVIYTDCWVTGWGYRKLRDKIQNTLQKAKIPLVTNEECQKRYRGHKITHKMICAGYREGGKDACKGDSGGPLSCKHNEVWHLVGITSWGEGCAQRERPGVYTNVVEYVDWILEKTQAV
T1 sequence (P03951 19-387 partner limits assumed): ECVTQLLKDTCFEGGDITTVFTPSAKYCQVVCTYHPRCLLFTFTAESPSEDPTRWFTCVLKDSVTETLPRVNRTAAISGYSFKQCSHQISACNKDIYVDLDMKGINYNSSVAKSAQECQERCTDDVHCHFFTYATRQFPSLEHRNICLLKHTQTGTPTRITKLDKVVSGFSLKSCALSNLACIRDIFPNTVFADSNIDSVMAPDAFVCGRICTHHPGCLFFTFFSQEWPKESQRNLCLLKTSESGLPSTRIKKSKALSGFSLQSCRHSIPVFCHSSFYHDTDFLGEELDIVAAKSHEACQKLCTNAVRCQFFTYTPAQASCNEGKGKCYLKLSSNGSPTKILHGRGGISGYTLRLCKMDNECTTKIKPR
Protocol: Coagulation factor XIa protease (FXIa) decomposed the specific substrate to produce yellow p-nitroaniline (pNA), pNA had strong absorption at 405 nm. The inhibitory activity of the compounds on coagulation factor XIa was determined by assaying the absorbance of the compounds at […].
The coagulation factor XIa protease used in the experiment was purchased from Abcam Company, Item No. ab62411; the coagulation factor XIa-specific substrate was purchased from HYPHEN BioMed, Item No. Biophen cs-21 (66); tris-HCl was purchased from Invitrogen, Item No. 15567-027; NaCl was purchased from ABCONE, Item No. S39168; Twain 20 was purchased from Amersco, Item No. 0777-1L.
as §1
a. 20 mM of the tested compound was diluted to 2 mM using 100% DMSO, and the reference compound was diluted to 0.4 mM; the compound was continuously diluted with a 3-fold gradient at 10 concentration points using a Bravo liquid workstation.
b. The ECHO liquid workstation was used to transfer 10 nL of compound to the corresponding 384-well experimental plate with double replicate wells; the final concentrations of compound reactions were 1000, 333.3, 111.1, 37.0, 12.3, 4.1, 1.37, 0.46, 0.15, and 0.05 nM. The final concentrations of reference compounds were 200, 66.7, 22.2, 7.4, 2.47, 0.82, 0.27, 0.09, 0.03, 0.01 nM.
c. 10 nL DMSO and 10 nL 0.4 mM reference compounds were transferred to high signal control pores and low signal control pores respectively.
d. 0.1 μg/mL FXIa enzyme solution was prepared with buffer solution, and 10 μL enzyme solution was added to 384-well experimental plate, 5 mM substrate solution was prepared using buffer solution, and […] substrate solution was added to a 384-well experimental plate. The final concentration of FXIa was 0.05 μg/mL and the final concentration of the substrate was 2.5 mM.
e. The 384-hole experimental plate was centrifuged and incubated at 37° C. for 15 minutes.
f. The absorbance was measured at 405 nm using EnVision.

- IC50 [2]: 7.02 nM
Structure (SMILES): Nc1ccc(-c2[nH]c([C@@H]3[C@H]4C[C@H]4c4cc(-c5cc(Cl)ccc5-n5cnnn5)cc(=O)n43)nc2F)cc1C(F)(F)F [Embodiment 50]
- CT2.0 [1]: 3.16 µM

- IC50 [2]: 5.18 nM
Structure (SMILES): O=c1cnc2cc(-c3cnc([C@@H]4[C@H]5C[C@H]5c5cc(-c6cc(Cl)ccc6-n6cnnn6)cc(=O)n54)[nH]3)ccc2[nH]1 [Embodiment 55]
- CT2.0 [1]: 0.67 µM

- IC50 [2]: 8.32 nM
Structure (SMILES): O=C1Nc2ccc(-c3cnc([C@@H]4[C@H]5C[C@H]5c5cc(-c6cc(Cl)ccc6-n6cnnn6)cc(=O)n54)[nH]3)cc2CO1 [Embodiment 57]
- CT2.0 [1]: 0.54 µM

- IC50 [2]: 3.25 nM
Structure (SMILES): O=c1[nH]c2ccc(-c3[nH]c([C@@H]4[C@H]5C[C@H]5c5cc(-c6cc(Cl)ccc6-n6cnnn6)cc(=O)n54)nc3F)cc2cc1C(F)(F)F [Embodiment 58]
- CT2.0 [1]: 1.21 µM

- IC50 [2]: 1.41 nM
Structure (SMILES): CC1Cc2cc(-c3[nH]c([C@@H]4[C@H]5C[C@H]5c5cc(-c6cc(Cl)ccc6-n6cnnn6)cc(=O)n54)nc3F)ccc2NC1=O (stereo partly shown) [Embodiment 59]
- CT2.0 [1]: 0.84 µM

- IC50 [2]: 6.76 nM
Structure (SMILES): O=C1COc2cc(-c3[nH]c([C@@H]4[C@H]5C[C@H]5c5cc(-c6cc(Cl)ccc6-n6cc(Cl)nn6)cc(=O)n54)nc3F)ccc2N1 [Embodiment 62]
- CT2.0 [1]: 2.32 µM

- IC50 [2]: 4.78 nM
Structure (SMILES): O=C1Nc2ccc(-c3[nH]c([C@@H]4[C@H]5C[C@H]5c5cc(-c6cc(Cl)ccc6-n6cc(Cl)nn6)cc(=O)n54)nc3F)cc2CO1 [Embodiment 64]
- CT2.0 [1]: 1.11 µM

- IC50 [2]: 3.54 nM
Structure (SMILES): Nc1noc2c(F)c(-c3cnc([C@@H]4[C@H]5C[C@H]5c5cc(-c6cc(Cl)ccc6-n6cc(Cl)nn6)cc(=O)n54)[nH]3)ccc12 [Embodiment 68]
- CT2.0 [1]: 0.65 µM

- IC50 [2]: 0.36 nM
Structure (SMILES): Nc1noc2cc(-c3[nH]c([C@@H]4[C@H]5C[C@H]5c5cc(-c6cc(Cl)ccc6-n6cc(Cl)nn6)cc(=O)n54)nc3F)ccc12 [Embodiment 69]
- CT2.0 [1]: 0.86 µM

- IC50 [2]: 2.16 nM
Structure (SMILES): CNc1noc2cc(-c3[nH]c([C@@H]4[C@H]5C[C@H]5c5cc(-c6cc(Cl)ccc6-n6cc(Cl)nn6)cc(=O)n54)nc3F)ccc12 [Embodiment 70]
- CT2.0 [1]: 1.32 µM

- IC50 [2]: 5.27 nM
Structure (SMILES): Cn1nc(N)c2ccc(-c3[nH]c([C@@H]4[C@H]5C[C@H]5c5cc(-c6cc(Cl)ccc6-n6cc(Cl)nn6)cc(=O)n54)nc3F)cc21 [Embodiment 75]
- CT2.0 [1]: 1.42 µM

- IC50 [2]: 0.76 nM
Structure (SMILES): Cn1nc(N)c2ccc(-c3[nH]c([C@@H]4[C@H]5C[C@H]5c5cc(-c6cc(Cl)ccc6-n6cnnn6)cc(=O)n54)nc3F)cc21 [Embodiment 76]
- CT2.0 [1]: 0.43 µM

- IC50 [2]: 3.18 nM
Structure (SMILES): O=C1CCc2cc(-c3[nH]c([C@@H]4[C@H]5C[C@H]5c5cc(-c6cc(Cl)ccc6-n6cc(Cl)nn6)cc(=O)n54)nc3Cl)ccc2N1 [Embodiment 77]
- CT2.0 [1]: 0.82 µM

- IC50 [2]: 1.41 nM
Structure (SMILES): Nc1n[nH]c2cc(-c3[nH]c([C@@H]4[C@H]5C[C@H]5c5cc(-c6cc(Cl)ccc6-n6cc(C(F)(F)F)nn6)cc(=O)n54)nc3F)ccc12 [Embodiment 78]
- CT2.0 [1]: 0.86 µM

- IC50 [2]: 1.02 nM
Structure (SMILES): Nc1noc2cc(-c3[nH]c([C@@H]4[C@H]5C[C@H]5c5cc(-c6cc(Cl)ccc6-n6cc(C(F)(F)F)nn6)cc(=O)n54)nc3F)ccc12 [Embodiment 79]
- CT2.0 [1]: 0.72 µM

- IC50 [2]: 6.36 nM
Structure (SMILES): O=C1CCc2cc(-c3[nH]c([C@@H]4[C@H]5C[C@H]5c5cc(-c6cc(Cl)ccc6-n6cc(C(F)(F)F)nn6)cc(=O)n54)nc3Cl)ccc2N1 [Embodiment 80]
- CT2.0 [1]: 3.50 µM

- IC50 [2]: 5.37 nM
Structure (SMILES): O=C1CCc2cc(-c3[nH]c([C@@H]4[C@H]5C[C@H]5c5cc(-c6cc(Cl)ccc6-n6cc(C(F)(F)F)nn6)cc(=O)n54)nc3F)ccc2N1 [Embodiment 81]
- CT2.0 [1]: 2.28 µM

- IC50 [2]: 4.84 nM
Structure (SMILES): Nc1n[nH]c2cc(-c3cnc([C@@H]4[C@H]5C[C@H]5c5cc(-c6cc(Cl)ccc6-n6cc(C(F)F)nn6)cc(=O)n54)[nH]3)ccc12 [Embodiment 82]
- CT2.0 [1]: 1.04 µM

Continued, molecule first:

Structure (SMILES): Nc1ccc(-c2cnc([C@@H]3[C@H]4C[C@H]4c4cc(-c5cc(Cl)ccc5-n5cnnn5)cc(=O)n43)[nH]2)c(F)n1 [Embodiment 1]
- CT2.0 [1]: 1.72 µM
- IC50 [2]: 6.5 nM

Structure (SMILES): Nc1ccc(-c2[nH]c([C@@H]3[C@H]4C[C@H]4c4cc(-c5cc(Cl)ccc5-n5cnnn5)cc(=O)n43)nc2F)c(F)n1 [Embodiment 2]
- CT2.0 [1]: 0.55 µM
- IC50 [2]: 6.7 nM

Structure (SMILES): Nc1ccc(-c2[nH]c([C@@H]3[C@H]4C[C@H]4c4nc(-c5cc(Cl)ccc5-n5cnnn5)cc(=O)n43)nc2F)c(F)n1 [Embodiment 14]
- CT2.0 [1]: 0.55 µM
- IC50 [2]: 2.84 nM

Structure (SMILES): Nc1n[nH]c2cc(-c3cnc([C@@H]4[C@H]5C[C@H]5c5cc(-c6cc(Cl)ccc6-n6cnnn6)cc(=O)n54)[nH]3)ccc12 [Embodiment 15]
- CT2.0 [1]: 0.47 µM
- IC50 [2]: 0.82 nM

Structure (SMILES): O=C1CCc2cc(-c3cnc([C@@H]4[C@H]5C[C@H]5c5cc(-c6cc(Cl)ccc6-n6cnnn6)cc(=O)n54)[nH]3)ccc2N1 [Embodiment 16]
- CT2.0 [1]: 0.63 µM
- IC50 [2]: 4.74 nM

Structure (SMILES): O=C1CCc2cc(-c3[nH]c([C@@H]4[C@H]5C[C@H]5c5cc(-c6cc(Cl)ccc6-n6cnnn6)cc(=O)n54)nc3F)ccc2N1 [Embodiment 17]
- CT2.0 [1]: 0.54 µM
- IC50 [2]: 0.83 nM

Structure (SMILES): O=C1COc2cc(-c3cnc([C@@H]4[C@H]5C[C@H]5c5cc(-c6cc(Cl)ccc6-n6cnnn6)cc(=O)n54)[nH]3)ccc2N1 [Embodiment 20]
- CT2.0 [1]: 0.88 µM
- IC50 [2]: 6.3 nM

Structure (SMILES): Nc1ccc(-c2cnc([C@@H]3[C@H]4C[C@H]4c4cc(-c5cc(Cl)ccc5-n5cnnn5)cc(=O)n43)[nH]2)c(F)c1F [Embodiment 24]
- CT2.0 [1]: 0.90 µM
- IC50 [2]: 8.65 nM

Structure (SMILES): Nc1noc2cc(-c3cnc([C@@H]4[C@H]5C[C@H]5c5cc(-c6cc(Cl)ccc6-n6cnnn6)cc(=O)n54)[nH]3)ccc12 [Embodiment 28]
- CT2.0 [1]: 0.07 µM
- IC50 [2]: 0.82 nM

Structure (SMILES): Nc1noc2cc(-c3[nH]c([C@@H]4[C@H]5C[C@H]5c5cc(-c6cc(Cl)ccc6-n6cnnn6)cc(=O)n54)nc3F)ccc12 [Embodiment 29]
- CT2.0 [1]: 0.37 µM
- IC50 [2]: 0.5 nM

Structure (SMILES): O=C1CCc2cc(-c3[nH]c([C@@H]4[C@H]5C[C@H]5c5cc(-c6cc(Cl)ccc6-n6cc(Cl)nn6)cc(=O)n54)nc3F)ccc2N1 [Embodiment 31]
- CT2.0 [1]: 2.38 µM
- IC50 [2]: 4.63 nM

Structure (SMILES): Nc1n[nH]c2cc(-c3cnc([C@@H]4[C@H]5C[C@H]5c5cc(-c6cc(Cl)ccc6-n6cc(Cl)nn6)cc(=O)n54)[nH]3)ccc12 [Embodiment 32]
- CT2.0 [1]: 0.26 µM
- IC50 [2]: 2.72 nM

Structure (SMILES): Nc1n[nH]c2cc(-c3[nH]c([C@@H]4[C@H]5C[C@H]5c5cc(-c6cc(Cl)ccc6-n6cc(Cl)nn6)cc(=O)n54)nc3F)ccc12 [Embodiment 33]
- CT2.0 [1]: 0.69 µM
- IC50 [2]: 0.85 nM

Structure (SMILES): Cn1nc(N)c2ccc(-c3cnc([C@@H]4[C@H]5C[C@H]5c5cc(-c6cc(Cl)ccc6-n6cnnn6)cc(=O)n54)[nH]3)cc21 [Embodiment 34]
- CT2.0 [1]: 0.58 µM
- IC50 [2]: 11.9 nM

Structure (SMILES): O=c1cc(-c2cc(Cl)ccc2-n2cnnn2)cc2n1[C@H](c1ncc(-c3ccc4c(c3)CCc3cn[nH]c3-4)[nH]1)[C@H]1C[C@@H]21 [Embodiment 42]
- CT2.0 [1]: 1.08 µM
- IC50 [2]: 8.71 nM

Structure (SMILES): Nc1ccc(-c2[nH]c([C@@H]3[C@H]4C[C@H]4c4cc(-c5cc(Cl)ccc5-n5cnnn5)cc(=O)n43)nc2F)c(F)c1F [Embodiment 48]
- CT2.0 [1]: 3.65 µM
- IC50 [2]: 3.93 nM

Structure (SMILES): Nc1ccc(-c2[nH]c([C@@H]3[C@H]4C[C@H]4c4cc(-c5cc(Cl)ccc5-n5cnnn5)cc(=O)n43)nc2F)cc1OC(F)(F)F [Embodiment 49]
- CT2.0 [1]: 6.86 µM
- IC50 [2]: 6.4 nM

— patent US20220251095A1, “TRICYCLIC COMPOUND, PREPARATION METHOD THEREFOR AND USE THEREOF” (SHANGHAI JEMINCARE PHARMACEUTICALS CO., LTD., priority 2019, published 2022)
